The test system of assay [1] is cultured cortical neurons from rat brains. The assay can be described thus: Ionomycin-induced cell death of cultured cortical neurons (calcein AM / propidium iodide). It is filed as cell-based. An excerpt:
(§1) In the first experiment, cell death of the neurons was induced by exposing the culture to ionomycin. In the second experiment, cell death was induced by exposing the neurons to 30 and 60 mJ/cm^2 of UV light. The exposure to either ionomycin or UV light caused calpain I to be activated because of ionomycin-mediated calcium flux or through UV-induced receptors, channels or pore-like structures. Calcein acetoxymethyl ester was used as indicator of live neuron cells while propidium iodide was used an indicator of dead neuron cells.
In the first experiment, ten Samples were prepared. Sample 1 was a control Sample and included the cultured cortical neurons only. A baseline for the average percentage of cell death was determined to be 19%. In Sample 2, 0.4 μM ionomycin was added to the cultured neuron cells to activate calpain I. No LSEAL was added to these Samples. The addition of ionomycin to these Samples caused the percentage of dead cells to more than triple to an average of 68%. Sample 3 was the same as Sample 2 except that 0.00001 micromolar of LSEAL was added before the ionomycin was added. The percentage of dead cells averaged of 106% of no LSEAL. Sample 4 was the same as Sample 3 except that 0.0001 micromolar of LSEAL was added. The percentage of cell death was 83% of no LSEAL. Sample 5 was the same as Sample 4 except that 0.001 micromolar LSEAL was added. The percentage of cell death was 63% of no LSEAL. Sample 6 was the same as Sample 5 except that 0.01 micromolar LSEAL was added. The percentage of cell death was 61% of no LSEAL. Sample 7 was the same as Sample 6 except that 0.1 micromolar LSEAL was added. The percentage of cell death was 57% of no LSEAL. Sample 8 was the same as Sample 7 except that 1.0 micromolar LSEAL was added. The percentage of cell death was 48% of no LSEAL. Sample 9 was the same as Sample 8 except that 10.0 micromolar LSEAL was added. The percentage of cell death was 35% of no LSEAL. Sample 10 was the same as Sample 9 except that 100 micromolar LSEAL was added. The percentage of cell death was 33% of no LSEAL. […] The results are summarized in Table 1 below and the results are graphically illustrated in FIG. 1

Assay [2] shares this test system. The assay is described as follows: UV light-induced cell death of cultured cortical neurons. It is filed as cell-based. As to conditions: for Dead Cells / Live Cells: cell count.
Excerpt: as §1
In the second experiment, cell death of the cultured cortical neurons was induced by UV light. […] The percentage of cell death was 18%. Sample 14 is the same as Sample 11, except for the addition of 100 μM LSEAL to the culture. The percentage of cell death was reduced from 18% to 14%. Sample 12 was exposed to 30 mJ/cm^2 of UV light. The percentage of cell death was 58%. The inclusion of the LSEAL before exposure reduced the percentage of cell death to 25%. See Sample 15. […] The data for the experiment is set forth below in Tables 3 and 4, and is graphically illustrated in FIG. 2.

The target in a further assay is T1, calpain I (Homo sapiens, UniProt P07384).
T1 sequence (P07384 1-714): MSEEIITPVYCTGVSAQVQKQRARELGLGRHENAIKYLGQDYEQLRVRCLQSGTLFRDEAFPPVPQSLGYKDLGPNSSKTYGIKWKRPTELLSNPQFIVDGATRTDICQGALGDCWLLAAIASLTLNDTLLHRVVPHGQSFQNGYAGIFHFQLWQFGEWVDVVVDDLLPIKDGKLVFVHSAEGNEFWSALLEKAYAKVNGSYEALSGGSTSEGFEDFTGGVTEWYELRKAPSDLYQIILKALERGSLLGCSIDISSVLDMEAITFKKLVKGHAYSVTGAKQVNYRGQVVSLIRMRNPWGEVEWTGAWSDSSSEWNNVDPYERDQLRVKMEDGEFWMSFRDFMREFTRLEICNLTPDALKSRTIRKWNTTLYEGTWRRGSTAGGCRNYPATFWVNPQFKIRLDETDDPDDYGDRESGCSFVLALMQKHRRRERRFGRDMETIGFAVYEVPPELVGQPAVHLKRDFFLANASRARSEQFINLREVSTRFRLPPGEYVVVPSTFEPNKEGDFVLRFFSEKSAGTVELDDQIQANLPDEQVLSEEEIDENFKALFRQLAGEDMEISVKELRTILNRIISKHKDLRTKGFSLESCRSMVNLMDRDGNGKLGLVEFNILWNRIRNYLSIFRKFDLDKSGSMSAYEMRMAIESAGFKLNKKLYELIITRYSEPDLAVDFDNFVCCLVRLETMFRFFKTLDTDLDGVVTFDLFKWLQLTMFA
T1 sequence (P04632 1-268 partner): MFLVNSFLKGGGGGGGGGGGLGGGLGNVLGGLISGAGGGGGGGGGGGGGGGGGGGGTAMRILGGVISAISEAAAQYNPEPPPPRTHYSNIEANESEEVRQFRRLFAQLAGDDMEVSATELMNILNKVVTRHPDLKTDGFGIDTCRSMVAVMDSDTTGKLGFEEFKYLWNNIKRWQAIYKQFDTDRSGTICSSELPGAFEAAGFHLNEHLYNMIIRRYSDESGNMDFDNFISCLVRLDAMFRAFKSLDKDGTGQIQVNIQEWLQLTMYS
The assay can be described thus: Tau protein degradation by calpain I. It is filed as biochemical. Conditions: 100 μM LSEAL; FIG. 3. As for the experimental part:
Another experiment was conducted to show the effect of the proteins of the present invention on the tau protein. The tau protein is a microtubule-associated protein (MAP). Tau is a well-described calpain I substrate.

Setting [3] is: 0 mJ/cm^2 UV light, LSEAL (Sample 14).
Setting [4] is: 30 mJ/cm^2 UV light, LSEAL (Sample 15).
[5] abbreviates: 60 mJ/cm^2 UV light, LSEAL (Sample 16).

For “Leu-Ser-Glu-Ala-Leu (LSEAL; listed as Homo sapiens)”, the “Percentage Average cell death (ratioed to 0 LSEAL)” value is 106% in assay [1] (0.00001 micromolar LSEAL added before 0.4 μM ionomycin (Sample 3)); 83% in assay [1] (0.0001 micromolar LSEAL, 0.4 μM ionomycin (Sample 4)); 63% in assay [1] (0.001 micromolar LSEAL, 0.4 μM ionomycin (Sample 5)); 61% in assay [1] (0.01 micromolar LSEAL, 0.4 μM ionomycin (Sample 6)); 57% in assay [1] (0.1 micromolar LSEAL, 0.4 μM ionomycin (Sample 7)); 48% in assay [1] (1.0 micromolar LSEAL, 0.4 μM ionomycin (Sample 8)). Besides, the “Percentage Average cell death (ratioed to 0 LSEAL)” value in assay [1] (10.0 micromolar LSEAL, 0.4 μM ionomycin (Sample 9)) is on record as 35%; in assay [1] (100 micromolar LSEAL, 0.4 μM ionomycin (Sample 10)), 33%. For the same substance, the “% Dead Cells” value is given as 14% in assay [2] (0 mJ/cm^2 UV light, 100 μM LSEAL (Sample 14), control without LSEAL 18%); 25% in assay [2] (30 mJ/cm^2 UV light, LSEAL included before exposure (Sample 15), control without LSEAL 58%); 30% in assay [2] (60 mJ/cm^2 UV light, culture containing LSEAL (Sample 16), control without LSEAL 74%). Besides, the figures for the “Dead Cells” value in assay [2] (setting [3]), in assay [2] (setting [4]) and in assay [2] (setting [5]) were 5, 26 and 25, respectively. Moreover, the “Live Cells” value amounted to 30 in assay [2] (setting [3]), 78 in assay [2] (setting [4]) and 56 in assay [2] (setting [5]). Moreover, the “Effect on tau degradation by calpain I” value with calpain I was “inhibits degradation”.

The values above are taken from patent US7385027B2, “Membrane-permeable peptide capable of calpain inhibition” (University of Kentucky Research Foundation, priority 2003, dated 2008).
